Residues, ends and D or L forms follow the SMILES beside them.
Key:
Albumin [1] = target: T1, Albumin (Homo sapiens, UniProt P02768); assay: Inhibition of D-glucose glycation in human serum albumin model assessed as reduction in fluorescence intensity incubated for 3 days by UV spectroscopic analysis relative to control; conditions: 72 h, time 3 day
Alpha glucosidase = Alpha glucosidase (Homo sapiens, UniProt O43451+P10253+P14410+Q2M2H8); assay: Inhibition of Alpha-glucosidase (unknown origin) using p-nitrophenyl-alpha-D-glucopyranoside as substrate pre-incubated for 10 mins followed by substrate addition and measured after 5 mins by spectrophotometric analysis; format: protein assay
Albumin [2] = target: T1, Albumin; assay: Inhibition of D-fructose glycation in human serum albumin model by measuring absorbance at 279 nm incubated for 3 days by UV spectroscopic analysis (reference value: 0.492); conditions: 72 h, time 3 day
Albumin [3] = target: T1, Albumin; assay: Inhibition of D-fructose glycation in human serum albumin model by measuring absorbance at 279 nm incubated for 5 days by UV spectroscopic analysis (reference value: 1.056); conditions: 120 h, time 5 day
Albumin [4] = target: T1, Albumin; assay: Inhibition of D-fructose glycation in human serum albumin model by measuring absorbance at 279 nm incubated for 14 days by UV spectroscopic analysis (reference value: 2.333); conditions: 336 h, time 14 day
Albumin [5] = target: T1, Albumin; assay: Inhibition of D-fructose glycation in human serum albumin model by measuring absorbance at 279 nm incubated for 26 days by UV spectroscopic analysis (reference value: 2.267); conditions: 624 h, time 26 day
Albumin [6] = target: T1, Albumin; assay: Inhibition of D-fructose glycation in human serum albumin model by measuring absorbance at 279 nm incubated for 33 days by UV spectroscopic analysis (Rvb =2.222); conditions: 792 h, time 33 day
Albumin [7] = target: T1, Albumin; assay: Inhibition of D-glucose glycation in human serum albumin model by measuring absorbance at 279 nm incubated for 3 days by UV spectroscopic analysis (reference value: 0.562); conditions: 72 h, time 3 day
Albumin [8] = target: T1, Albumin; assay: Inhibition of D-glucose glycation in human serum albumin by measuring absorbance at 279 nm model incubated for 14 days by UV spectroscopic analysis (reference value: 2.302); conditions: 336 h, time 14 day
Albumin [9] = target: T1, Albumin; assay: Inhibition of D-glucose glycation in human serum albumin model by measuring absorbance at 279 nm incubated for 26 days by UV spectroscopic analysis (reference value: 2.301); conditions: 624 h, time 26 day
Albumin [10] = target: T1, Albumin; assay: Inhibition of D-glucose glycation in human serum albumin model by measuring absorbance at 279 nm incubated for 30 days by UV spectroscopic analysis (reference value: 2.295); conditions: 720 h, time 30 day
Albumin [11] = target: T1, Albumin; assay: Inhibition of D-glucose glycation in human serum albumin model by measuring absorbance at 279 nm incubated for 33 days by UV spectroscopic analysis (reference value: 1.997); conditions: 792 h, time 33 day
Albumin [12] = target: T1, Albumin; assay: Inhibition of D-fructose glycation in human serum albumin model by measuring ketoamine moieties incubated for 3 days by Nitroblue tetrazolium (NBT) reduction assay (reference value: 152.64 nmol/mL); conditions: 72 h, time 3 day
Albumin [13] = target: T1, Albumin; assay: Inhibition of D-fructose glycation in human serum albumin model by measuring ketoamine moieties incubated for 30 days by Nitroblue tetrazolium (NBT) reduction assay (reference value: 128.71 nmol/mL); conditions: 720 h, time 30 day
Albumin [14] = target: T1, Albumin; assay: Inhibition of D-fructose glycation in human serum albumin model by measuring ketoamine moieties incubated for 33 days by Nitroblue tetrazolium (NBT) reduction assay (reference value: 144.33 nmol/mL); conditions: 792 h, time 33 day
Albumin [15] = target: T1, Albumin; assay: Inhibition of D-glucose glycation in human serum albumin model by measuring ketoamine moieties incubated for 3 days by Nitroblue tetrazolium (NBT) reduction assay (reference value: 24.27 nmol/mL); conditions: 72 h, time 3 day
Albumin [16] = target: T1, Albumin; assay: Inhibition of D-glucose glycation in human serum albumin model by measuring ketoamine moieties incubated for 7 days by Nitroblue tetrazolium (NBT) reduction assay (reference value: 35.92 nmol/mL); conditions: 168 h, time 7 day
Albumin [17] = target: T1, Albumin; assay: Inhibition of D-glucose glycation in human serum albumin model by measuring ketoamine moieties incubated for 14 days by Nitroblue tetrazolium (NBT) reduction assay (reference value: 28.69 nmol/mL); conditions: 336 h, time 14 day
Albumin [18] = target: T1, Albumin; assay: Inhibition of D-glucose glycation in human serum albumin model by measuring ketoamine moieties incubated for 26 days by Nitroblue tetrazolium (NBT) reduction assay (reference value: 28.79 nmol/mL); conditions: 624 h, time 26 day
Albumin [19] = target: T1, Albumin; assay: Inhibition of D-glucose glycation in human serum albumin model by measuring ketoamine moieties incubated for 30 days by Nitroblue tetrazolium (NBT) reduction assay (reference value: 27.85 nmol/mL); conditions: 720 h, time 30 day
Albumin [20] = target: T1, Albumin; assay: Inhibition of D-glucose glycation in human serum albumin model by measuring ketoamine moieties incubated for 33 days by Nitroblue tetrazolium (NBT) reduction assay (reference value: 66.64 nmol/mL); conditions: 792 h, time 33 day
Mus musculus [21] = assay: Antidiabetic activity in Nicotinamide/Streptozotocin induced male Balb/c mouse model assessed as change in body weight at 63.81 ug/kg, ip measured immediately (reference value: 25.08 +/- 1.25 g); format: functional; conditions: dose 63.81 µg/kg
Mus musculus [22] = assay: Antidiabetic activity in Nicotinamide/Streptozotocin induced male Balb/c mouse model assessed as change in body weight at 63.81 ug/kg, ip treated for 21 days (reference value: 16.62 +/- 0.83 g); format: functional; conditions: dose 63.81 µg/kg, time 21 day
Mus musculus [23] = assay: Antidiabetic activity in Nicotinamide/Streptozotocin induced male Balb/c mouse model assessed as change in body weight at 63.81 ug/kg, ip treated for 21 days relative to control; format: functional; conditions: dose 63.81 µg/kg, time 21 day
Mus musculus [24] = assay: Antidiabetic activity in Nicotinamide/Streptozotocin induced male Balb/c mouse model assessed as reduction in HDL-cholesterol level in blood at 63.81 ug/kg, ip treated for 21 days (reference value: 30 +/- 1.80 mg/dL); format: functional; conditions: dose 63.81 µg/kg, time 21 day
Mus musculus [25] = assay: Antidiabetic activity in Nicotinamide/Streptozotocin induced male Balb/c mouse model assessed as reduction in Triglycerides level in blood at 63.81 ug/kg, ip treated for 21 days (reference value: 61 +/- 3.05 mg/dL); format: functional; conditions: dose 63.81 µg/kg, time 21 day
Mus musculus [26] = assay: Antidiabetic activity in Nicotinamide/Streptozotocin induced male Balb/c mouse model assessed as reduction in VLDL-cholesterol level in blood at 63.81 microg/kg, ip treated for 21 days (reference value: 14 +/- 0.6 mg/dL); format: functional; conditions: dose 63.81 µg/kg, time 21 day
Mus musculus [27] = assay: Antidiabetic activity in Nicotinamide/Streptozotocin induced male Balb/c mouse model assessed as TC/HDL-Cholesterol ratio in blood at 63.81 ug/kg, ip treated for 21 days (reference value: 4.03); format: functional; conditions: dose 63.81 µg/kg, time 21 day
Mus musculus [28] = assay: Antidiabetic activity in Nicotinamide/Streptozotocin induced male Balb/c mouse model assessed as LDL-Cholesterol/HDL-Cholesterol ratio in blood at 63.81 ug/kg, ip treated for 21 days (reference value: 1.53); format: functional; conditions: dose 63.81 µg/kg, time 21 day
Mus musculus [29] = assay: Antidiabetic activity in Nicotinamide/Streptozotocin induced male Balb/c mouse model assessed as reduction in fasting blood glucose levels at 63.81 ug/kg, ip measured immediately by glucometer analysis (reference value: 127.50 +/- 6.87 mg/dl); format: functional; conditions: dose 63.81 µg/kg
Mus musculus [30] = assay: Antidiabetic activity in Nicotinamide/Streptozotocin induced male Balb/c mouse model assessed as reduction in fasting blood glucose levels at 63.81 ug/kg, ip measured after 7 days by glucometer analysis (reference value: 160.5 +/- 8.02 mg/dl); format: functional; conditions: dose 63.81 µg/kg, time 7 day
Mus musculus [31] = assay: Antidiabetic activity in Nicotinamide/Streptozotocin induced male Balb/c mouse model assessed as reduction in fasting blood glucose levels at 63.81 ug/kg, ip measured after 21 days by glucometer analysis (reference value: 180.5 +/- 9.02 mg/dl); format: functional; conditions: dose 63.81 µg/kg, time 21 day

T1 sequence (P02768 whole entry): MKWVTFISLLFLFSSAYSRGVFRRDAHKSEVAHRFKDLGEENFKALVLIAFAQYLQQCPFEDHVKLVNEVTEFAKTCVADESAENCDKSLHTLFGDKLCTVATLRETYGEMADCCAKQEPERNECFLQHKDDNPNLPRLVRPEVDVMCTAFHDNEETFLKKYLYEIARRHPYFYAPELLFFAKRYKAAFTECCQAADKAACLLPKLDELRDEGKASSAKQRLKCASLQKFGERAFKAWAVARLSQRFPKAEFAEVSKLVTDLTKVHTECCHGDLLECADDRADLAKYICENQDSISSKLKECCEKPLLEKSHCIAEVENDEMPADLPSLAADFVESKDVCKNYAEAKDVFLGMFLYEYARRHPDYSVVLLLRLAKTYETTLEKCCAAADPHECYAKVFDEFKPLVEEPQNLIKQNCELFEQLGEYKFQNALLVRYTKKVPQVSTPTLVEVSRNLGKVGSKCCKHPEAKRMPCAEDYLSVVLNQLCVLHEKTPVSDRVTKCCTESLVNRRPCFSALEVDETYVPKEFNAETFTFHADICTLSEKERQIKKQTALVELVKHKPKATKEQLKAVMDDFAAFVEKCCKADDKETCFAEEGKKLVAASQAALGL

- inhibition (INH) (Albumin [1]): 78%
- IC50 (Alpha glucosidase): 98 µM
- OD (Albumin [2]): 0.287
- OD (Albumin [3]): 0.482
- OD (Albumin [4]): 1.207
- OD (Albumin [5]): 1.502
- OD (Albumin [6]): 1.298
- OD (Albumin [7]): 0.287
- OD (Albumin [8]): 0.443
- OD (Albumin [9]): 2.301
- OD (Albumin [10]): 2.555
- OD (Albumin [11]): 1.236
- Activity (Albumin [12]): 135.37 nmol/mL
- Activity (Albumin [13]): 108.46 nmol/mL
- Activity (Albumin [14]): 109.89 nmol/mL
- Activity (Albumin [15]): 19.383 nmol/mL
- Activity (Albumin [16]): 12.579 nmol/mL
- Activity (Albumin [17]): 9.573 nmol/mL
- Activity (Albumin [18]): 20.174 nmol/mL
- Activity (Albumin [19]): 18.908 nmol/mL
- Activity (Albumin [20]): 18.433 nmol/mL
Structure (SMILES): N=C(N)NCCC[C@H](N)C(=O)N[C@@H](Cc1c[nH]c2ccccc12)C(=O)N[C@@H](Cc1c[nH]c2ccccc12)C(=O)O (H-Arg-Trp-Trp-OH)
- Activity (Mus musculus [21]): 29.56 g
- Activity (Mus musculus [22]): 30.38 g
- Activity (Mus musculus [23]): 2.7%
- Activity (Mus musculus [24]): 41 mg/dL
- Activity (Mus musculus [25]): 53 mg/dL
- Activity (Mus musculus [26]): 11 mg/dL
- Ratio (Mus musculus [27]): 2.63
- Ratio (Mus musculus [28]): 0.75
- Activity (Mus musculus [29]): 111.5 mg/dL
- Activity (Mus musculus [30]): 150 mg/dL
- Activity (Mus musculus [31]): 115 mg/dL

Source: ChEMBL document CHEMBL6109039, “Designed and synthesized novel tripeptides targeting diabetes and its related pathologies” (Eur J Med Chem, 2025)
